Assay [1] addresses T1, catalytic domain (JH1, amino acids 826-1132) of human JAK2 (Homo sapiens, UniProt O60674).
T1 construct: catalytic domain (JH1, amino acids 826-1132) of human JAK2; FLAG (N); purchased Carna Biosciences 08-445-20N; host or cells: baculovirus expression system
As to the kind of experiment: JAK2 LanthaScreen JH1 binding assay. To be noted: 50 nM tracer, 2 hours at 25° C., read-out: JH1 BIND IC50. In a few lines: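 Binding of compounds to biotinylated, FLAG-tagged human JAK2 JH1 (aa 826-1132; 1.5 nM) was measured by LanthaScreen TR-FRET with 50 nM fluorescent tracer and 0.5 nM streptavidin-Tb, in pH 7.5 Tris buffer. Non-specific binding was defined with 2 mM ATP. After 2 h at 25 °C, IC50 was fitted from four-parameter dose-response curves.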
(In general: Time-resolved FRET reads energy transfer from a long-lived donor to a nearby acceptor.)

Assay [2] concerns the target T2, pseudo-kinase domain (JH2, amino-acids 536-812 with 3 surface mutations W659A, W777A, F794H) of human Wild Type JAK2 (Homo sapiens, UniProt O60674, F794H/W659A/W777A).
T2 construct: pseudo-kinase domain (JH2, amino-acids 536-812 with 3 surface mutations W659A, W777A, F794H); His (C); Avi (biotinylated) (C); purchased BPS Bioscience 79463; host or cells: baculovirus expression system
As to the kind of experiment: JAK2 LanthaScreen JH2-WT binding assay. As to conditions: 50 nM tracer, 1 hour at 25° C., read-out: JH2 BIND WT IC50. In a few lines:
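Compounds, serially diluted, were mixed with 0.145 nM JH2 domain, 50 nM tracer and 0.25 nM streptavidin-Tb cryptate, then incubated 1 hour at 25° C before LanthaScreen reading. Wells containing 2 mM ATP defined non-specific binding. Four-parameter dose-response curves gave IC50.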

Assay [3] addresses T3, pseudo-kinase domain (JH2, amino-acids 536-812 with 3 surface mutations W659A, W777A, F794H) of human V617F mutant JAK2 (Homo sapiens, UniProt O60674, F794H/V617F/W659A/W777A).
T3 construct: pseudo-kinase domain (JH2, amino-acids 536-812 with 3 surface mutations W659A, W777A, F794H); His (C); Avi (biotinylated) (C); purchased BPS Bioscience 79498; host or cells: baculovirus expression system
Put plainly: JAK2 LanthaScreen JH2-V617F binding assay. As to conditions: 50 nM tracer, 1 hour at 25° C., read-out: JH2 BIND V617F IC50. Summed up:
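TR-FRET tracer displacement: 0.26 nM protein, 50 nM tracer, 0.25 nM SA-Tb, 50 mM Tris pH 7.5, 10 mM MgCl2, 5 mM DTT; 1 h, 25° C. NSB = 2 mM ATP. IC50, 4-parameter curve.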

T2 sequence (O60674 536-812 W659A/W777A/F794H): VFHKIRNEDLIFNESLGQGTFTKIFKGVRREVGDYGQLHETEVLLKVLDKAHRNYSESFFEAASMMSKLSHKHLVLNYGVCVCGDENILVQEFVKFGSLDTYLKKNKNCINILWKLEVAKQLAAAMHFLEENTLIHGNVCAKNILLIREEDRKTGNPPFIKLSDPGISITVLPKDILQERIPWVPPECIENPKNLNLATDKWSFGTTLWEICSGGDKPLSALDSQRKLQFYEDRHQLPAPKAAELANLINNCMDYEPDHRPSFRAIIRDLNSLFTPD
T3 sequence (O60674 536-812 V617F/W659A/W777A/F794H): as the sequence (O60674 536-812 W659A/W777A/F794H) above, with V82F counted along it
T1 sequence (O60674 826-1132): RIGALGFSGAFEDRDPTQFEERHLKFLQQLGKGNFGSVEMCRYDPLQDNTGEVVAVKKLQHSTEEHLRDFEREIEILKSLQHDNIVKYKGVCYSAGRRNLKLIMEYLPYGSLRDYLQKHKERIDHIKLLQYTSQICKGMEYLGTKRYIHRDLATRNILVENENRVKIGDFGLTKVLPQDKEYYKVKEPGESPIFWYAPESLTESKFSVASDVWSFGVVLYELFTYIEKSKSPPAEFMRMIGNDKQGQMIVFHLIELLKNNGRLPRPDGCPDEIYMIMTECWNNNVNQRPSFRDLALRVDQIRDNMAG

Consider `COC(=O)N[C@H]1C[C@H](N2C(=O)NCc3cnc4[nH]c(-c5cnn(C)c5)c(-c5ccc6c(cnn6C(C)C)c5)c4c32)C1` [Example 1, Methyl ((1r,3r)-3-(9-(1-isopropyl-1H-indazol-5-yl)-8-(1-methyl-1H-pyrazol-4-yl)-2-oxo-2,3,4,7-tetrahydro-1H-pyrrolo[3′,2′:5,6]pyrido[4,3-d]pyrimidin-1-yl)cyclobutyl)carbamate], for which the IC50 in assay [1] was 100 to 500 nM; in assay [2] it was at most 10 nM; in assay [3] it was at most 10 nM.
`CC(C)n1ncc2cc(-c3c(-c4cnn(C)c4)[nH]c4ncc5c(c34)N([C@H]3CC[C@@H]3NS(C)(=O)=O)C(=O)NC5)ccc21` (racemic) [Example 7, N-(trans-2-(9-(1-Isopropyl-1H-indazol-5-yl)-8-(1-methyl-1H-pyrazol-4-yl)-2-oxo-2,3,4,7-tetrahydro-1H-pyrrolo[3′,2′:5,6]pyrido[4,3-d]pyrimidin-1-yl)cyclobutyl) methan esulfonamide]: the IC50 in assay [1] was above 1000 nM; in assay [2] it was 10 to 100 nM; in assay [3] it was 10 to 100 nM.
On to `COC(=O)N[C@@H]1CC[C@@H](N2C(=O)NCc3cnc4[nH]c(-c5cnn(C)c5)c(-c5ccc6c(c5)COC6(C)C)c4c32)C1` [Example 26, Methyl ((1R,3R)-3-(9-(1,1-dimethyl-1,3-dihydroisobenzof uran-5-yl)-8-(1-methyl-1H-pyrazol-4-yl)-2-oxo-2,3,4,7-tetrahydro-1H-pyrrolo[3′,2′:5,6]pyrido[4,3-d]pyrimidin-1-yl)cyclopentyl)ca rbamate], for which the results for the IC50 in assay [1], in assay [2] and in assay [3] were 500 to 1000 nM, at most 10 nM and at most 10 nM, respectively.
With `COC(=O)N[C@@H]1CC[C@@H](N2C(=O)NCc3cnc4[nH]c(-c5cnn(C)c5)c(-c5ccc(OC)cc5)c4c32)C1` [Example 28, Methyl ((1R,3R)-3-(9-(4-methoxyphenyl)-8-(1-methyl-1H-pyrazol-4-yl)-2-oxo-2,3,4,7-tetrahydro-1H-pyrrolo[3′,2′:5,6]pyrido[4,3-d]pyrimidin-1-yl)cyclopentyl)carbamate], the IC50 in assay [1] is above 1000 nM; in assay [2], 10 to 100 nM; in assay [3], 10 to 100 nM.
For `COC(=O)N[C@@H]1CC[C@@H](N2C(=O)NCc3cnc4[nH]c(-c5cnn(C)c5)c(-c5ccc6c(cnn6C6CCC6)c5)c4c32)C1` [Example 24, Methyl ((1R,3R)-3-(9-(1-cyclobutyl-1H-indazol-5-yl)-8-(1-methyl-1H-pyrazol-4-yl)-2-oxo-2,3,4,7-tetrahydro-1H-pyrrolo[3′,2′:5,6]pyrido[4,3-d]pyrimidin-1-yl)cyclopentyl) carbamate], the figures for the IC50 in assay [1], in assay [2] and in assay [3] were 100 to 500 nM, 10 to 100 nM and 10 to 100 nM, respectively.

As a reminder, the IC50 is the midpoint of a concentration-inhibition curve.

The values above are taken from patent publication US20240300948A1, “Heterocyclic Compounds As Kinase Inhibitors” (Incyte Corporation, priority 2023, published 2024).
